Molecular target: T1, hTAS1R1 Q278A/rTAS1R3 (Homo sapiens, UniProt Q7RTX1, Q278A)
T1 construct: expressed in transfected cells; host or cells: HEK293T/17 (ATCC CRL-11268)
T1 sequence (Q7RTX1 21-841 Q278A): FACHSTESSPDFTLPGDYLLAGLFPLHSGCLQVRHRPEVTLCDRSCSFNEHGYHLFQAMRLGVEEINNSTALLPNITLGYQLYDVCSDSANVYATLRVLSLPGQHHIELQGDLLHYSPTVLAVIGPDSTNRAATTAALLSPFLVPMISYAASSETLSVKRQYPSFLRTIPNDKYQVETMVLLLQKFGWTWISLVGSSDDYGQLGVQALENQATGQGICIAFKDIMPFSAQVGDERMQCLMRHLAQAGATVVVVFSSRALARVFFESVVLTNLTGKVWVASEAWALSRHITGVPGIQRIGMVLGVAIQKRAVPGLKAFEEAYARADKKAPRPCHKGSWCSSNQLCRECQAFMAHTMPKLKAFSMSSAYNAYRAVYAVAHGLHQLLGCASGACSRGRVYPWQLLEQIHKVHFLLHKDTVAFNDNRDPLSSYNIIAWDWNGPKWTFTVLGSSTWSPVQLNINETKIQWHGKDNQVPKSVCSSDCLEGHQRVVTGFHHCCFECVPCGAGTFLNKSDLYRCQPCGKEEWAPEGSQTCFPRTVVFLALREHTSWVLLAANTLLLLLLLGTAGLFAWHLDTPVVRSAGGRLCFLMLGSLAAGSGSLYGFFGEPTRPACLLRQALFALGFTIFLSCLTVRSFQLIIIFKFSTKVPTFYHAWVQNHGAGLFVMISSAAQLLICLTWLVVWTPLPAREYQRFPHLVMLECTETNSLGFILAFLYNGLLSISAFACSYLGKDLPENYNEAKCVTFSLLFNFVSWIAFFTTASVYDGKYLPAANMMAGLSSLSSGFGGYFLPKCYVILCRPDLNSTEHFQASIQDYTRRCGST
T1 sequence (Q923K1 21-858 partner): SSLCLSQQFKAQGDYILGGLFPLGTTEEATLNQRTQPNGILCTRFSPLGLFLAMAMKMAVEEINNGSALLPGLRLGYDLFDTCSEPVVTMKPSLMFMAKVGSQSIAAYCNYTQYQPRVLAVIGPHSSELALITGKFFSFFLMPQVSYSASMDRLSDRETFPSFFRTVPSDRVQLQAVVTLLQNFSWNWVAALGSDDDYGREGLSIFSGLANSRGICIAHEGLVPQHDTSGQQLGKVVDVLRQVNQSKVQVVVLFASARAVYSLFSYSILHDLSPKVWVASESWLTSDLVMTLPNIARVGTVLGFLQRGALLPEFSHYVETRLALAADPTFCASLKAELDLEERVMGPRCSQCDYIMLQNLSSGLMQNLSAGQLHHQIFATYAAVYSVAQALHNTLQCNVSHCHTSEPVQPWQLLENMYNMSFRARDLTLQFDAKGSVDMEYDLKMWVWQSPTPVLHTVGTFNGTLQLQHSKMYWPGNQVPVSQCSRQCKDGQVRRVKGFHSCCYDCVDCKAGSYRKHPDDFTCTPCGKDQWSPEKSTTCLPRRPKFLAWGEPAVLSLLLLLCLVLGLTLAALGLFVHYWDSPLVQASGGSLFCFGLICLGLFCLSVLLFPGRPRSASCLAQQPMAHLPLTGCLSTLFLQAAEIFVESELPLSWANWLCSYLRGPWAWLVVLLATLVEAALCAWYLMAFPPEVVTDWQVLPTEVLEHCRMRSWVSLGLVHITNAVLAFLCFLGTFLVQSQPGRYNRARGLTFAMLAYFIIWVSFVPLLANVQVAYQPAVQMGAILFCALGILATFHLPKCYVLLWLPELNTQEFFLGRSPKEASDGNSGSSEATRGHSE
Assay: Calcium assay, hTAS1R1 mutant co-expressed with rTAS1R3
Assay type: cell-based, rat

## N[C@@H](CCC(=O)N[C@@H](CS)C(=O)NCC(=O)O)C(=O)O [GSH, γ-L-glutamyl-L-cysteinyl-glycine]
  EC50: 3.42 ± 0.073 mM
Q278A
  effect of the added compound (1 mM) on the response to L-Glu: synergy was observed
  response to the agonist alone, vs WT: significantly increased the initial amplitude
Q278A, GSH
  Max ∆F/F0: 1.46 ± 0.01
  R1 = mutant EC50/WT EC50: 1.4
